Assay results taken from US7030067B2, “Bis(perfluoroalkanesulfonyl)imides and their salts as surfactants/additives for applications having extreme environments and methods therefor” (priority 2001, dated 2006).
Entries after “also recorded” stand apart in the source; their conditions may differ.

Experiments:
[1] = Surface tension measurements in tributyl phosphate; type: physicochemical; settings: 2000 ppm in tributyl phosphate
Procedure: (§1) All surface tensions were determined using a Kruss K12 Tensiometer. The tensiometer was integrated with an automatic dosimat and a computer, using a software package for dynamic contact angle (K121). The program was run using a Wilhelmy platinum plate (PL12) and glass sample vessel (GL7). All parts referenced above including instrument and computer are available from Kruss USA, Charlotte, N.C.
Surface tension measurements were obtained as described above with the exception that the measurments were obtained in tributyl phosphate.

[2] = DC conductivity of potassium salts in tributylphosphate; type: physicochemical; settings: 3000 ppm in tributyl phosphate, 21.6-21.9° C.
Source text: Four tributylphosphate samples, with or without dissolved anti-erosion additives, measured for DC conductivity. The four samples were neat tributyl phosphate (control), tributyl phosphate with 3000 ppm FC-98, tributyl phosphate with 3000 ppm PBSK, and tributyl phosphate with 3000 ppm potassium bis(perfluorobutanesulfonyl)imide (DBIK).
The conductivity probe was carefully cleaned with EM Science OMNISOLV™ grade methanol, dried in a clean nitrogen stream, and allowed to equilibrate back to ambient temperature between samples.

[3] = Surface tension determination in water (Kruss K12 Tensiometer, Wilhelmy plate); type: physicochemical; settings: for surface tension versus concentration profile, comparison in words: FIG. 1, 2, 3, 5
Procedure: Test Procedure I—Surface Tension Determination
as §1

[4] = Bioelimination study, fluorochemical sulfonate in male rat liver tissue; type: in vivo; settings: for factor lower than C6F13SO3− / factor lower than C8F17SO3−: liver amount; for Amount of Sulfonate, Day 1 / Amount of Sulfonate, Day 14 / Amount of Sulfonate, Day 28: male rat liver tissue, dose 30 (C4), 10 (C6), 3 (C8) mg/kg body weight/day; for Amount of Sulfonate, Day 1: Day 1 following completion of feeding; for Amount of Sulfonate, Day 1N / Amount of Sulfonate, Day 14N / Amount of Sulfonate, Day 28N: male rat liver, normalized to a feeding level of 3 mg/kg body weight per day; for elimination from the body, in words: tested in the form of its potassium salt
Procedure: Comparative study of potassium perfluorobutanesulfonate (using a dose level of 30 mg/kg body weight/day), potassium perfluorohexanesulfonate (using a dose level of 10 mg/kg body weight/day), and potassium perfluorooctanesulfonate (using a dose level of 3 mg/kg body weight/day).

[5] = Solubility in 10/1 buffered oxide etch solution
[6] = 28 days following completion of feeding
[7] = 28 days following completion of feeding, after normalization to the same feeding levels
[8] = immediately following completion of feeding

For `O=S(=O)([O-])C1(F)C(F)(F)C(F)(F)C(F)(C(F)(F)C(F)(F)F)C(F)(F)C1(F)F.[K+]` (stereo not drawn) [FC-98, Potassium perfluoroethylcyclohexanesulfonate], the “Surface Tension @ 2000 ppm” value [1] was 26.94 dyne/cm and the “Observed Conductivity” value [2] was 3.2 uS/cm.
`O=S(=O)([N-]S(=O)(=O)C(F)(F)C(F)(F)C(F)(F)C(F)(F)F)C(F)(F)C(F)(F)C(F)(F)C(F)(F)F.[Li+]` [DBI-Li, Lithium bis(perfluorobutanesulfonyl)imide] gave a surface tension ([3]; 200 ppm) of 53.2 dyne/cm, a surface tension ([3]; 450 ppm) of 48.1 dyne/cm and a surface tension ([3]; 960 ppm) of 42.8 dyne/cm. For the same compound, the surface tension ([3]; 1300 ppm) was 41.5 dyne/cm, the surface tension ([3]; 1700 ppm) was 39.1 dyne/cm and the surface tension ([3]; 2600 ppm) was 36.0 dyne/cm. The “surface tension versus concentration profile, comparison in words” value [3] was “significantly lower surface tensions than the shorter chain homologues”.
With `O=S(=O)([O-])C(F)(F)C(F)(F)C(F)(F)C(F)(F)F.[K+]` [Example C4F9SO3K, Potassium perfluorobutanesulfonate] the “surface tension (surface energy)” value ([3]; 10 ppm) was 70 dynes/cm, the “surface tension (surface energy)” value ([3]; 100 ppm) was 67.5 dynes/cm and the “surface tension (surface energy)” value ([3]; 1000 ppm) was 53 dynes/cm. The “surface tension versus concentration profile, comparison in words” value [3] was “less effective than perfluorooctanesulfonate in lowering the surface tension of water”, the “Surface Tension @ 2000 ppm” value [1] was 27.32 dyne/cm and the “Observed Conductivity” value [2] was 3.5 uS/cm. The “factor lower than C6F13SO3−” value [4, 6] was over 1400, the “factor lower than C6F13SO3−” value [4, 7] was 4400 and the “factor lower than C6F13SO3−” value [4, 8] was over 100. The “Amount of Sulfonate, Day 1” value [4] was 3.09 ± 1.58 ppm, the “Amount of Sulfonate, Day 14” value [4] was 0.126 ± 0.084 ppm and the “Amount of Sulfonate, Day 28” value [4] was 0.025 ± 0.015 ppm. For the same compound, the “Amount of Sulfonate, Day 1N” value [4] was 0.31 ppm, the “Amount of Sulfonate, Day 14N” value [4] was 0.0126 ppm and the “Amount of Sulfonate, Day 28N” value [4] was 0.0025 ppm. For the same compound, the “elimination from the body, in words” value ([4]; listed as C4F9SO3^−) was “unexpectedly fast and effective elimination” and the “elimination from the body, in words” value ([4]; listed as perfluorobutanesulfonate) was “eliminates from the body more rapidly than perfluorohexanesulfonate and much more rapidly than perfluorooctanelsulfonate”.
In the case of `N.O=S(=O)(O)C(F)(F)C(F)(F)C(F)(F)C(F)(F)C(F)(F)C(F)(F)C(F)(F)C(F)(F)F` [FC-93, ammonium perfluorooctanesulfonate], the “solubility in buffered oxide etch” value ([5]; all concentrations (FIG. 4)) is reported as “precipitated”.
For `O=S(=O)([N-]S(=O)(=O)C(F)(F)C(F)(F)C(F)(F)C(F)(F)F)C(F)(F)C(F)(F)C(F)(F)C(F)(F)F.[K+]` [C4F9SO2NKSO2C4F9, potassium bis(perfluorobutanesulfonyl)imide], the “surface tension (surface energy)” value ([3]; 10 ppm) was 61.85 dynes/cm, the “surface tension (surface energy)” value ([3]; 100 ppm) was 41.61 dynes/cm and the “surface tension (surface energy)” value ([3]; 1000 ppm) was 34.02 dynes/cm. For the same compound, the “surface tension versus concentration profile, comparison in words” value [3] was “surface tensions significantly less than PBSK and comparable to potassium perfluorooctanesulfonate at equal concentrations; also recorded: the same or better surface tension in water as C8F17SO3K”, the “Surface Tension @ 2000 ppm” value [1] was 27.34 dyne/cm and the “Observed Conductivity” value [2] was 13.8 uS/cm.
`O=S(=O)([N-]S(=O)(=O)C(F)(F)C(F)(F)C(F)(F)C(F)(F)F)C(F)(F)C(F)(F)C(F)(F)C(F)(F)F.O=S(=O)([N-]S(=O)(=O)C(F)(F)C(F)(F)C(F)(F)C(F)(F)F)C(F)(F)C(F)(F)C(F)(F)C(F)(F)F.[Mg+2]` [Mg (DBI)2, Mg^+2[^−N(SO2C4F9)2]2] gave a surface tension ([3]; 200 ppm) of 46.6 dyne/cm, a surface tension ([3]; 450 ppm) of 40.2 dyne/cm and a surface tension ([3]; 960 ppm) of 35.0 dyne/cm. It also gave a surface tension ([3]; 1300 ppm) of 32.0 dyne/cm, a surface tension ([3]; 1700 ppm) of 29.0 dyne/cm and a surface tension ([3]; 2600 ppm) of 26.3 dyne/cm. The “Surface Tension @ 2000 ppm” value [1] was 27.04 dyne/cm.
With `O=S(=O)([O-])C(F)(F)C(F)(F)C(F)(F)C(F)(F)C(F)(F)C(F)(F)C(F)(F)C(F)(F)F.O=S(=O)([O-])C(F)(F)C(F)(F)C(F)(F)C(F)(F)C(F)(F)C(F)(F)C(F)(F)C(F)(F)F.[Mg+2]` [Mg(C8F17SO3)2] the “Surface Tension @ 2000 ppm” value [1] was 27.36 dyne/cm.
In the case of `O.O.O.O.O.O.O=S(=O)([O-])C(F)(F)C(F)(F)C(F)(F)C(F)(F)F.O=S(=O)([O-])C(F)(F)C(F)(F)C(F)(F)C(F)(F)F.[Mg+2]` [Mg(SO3C4F9)2 · 6H2O], the “Surface Tension @ 2000 ppm” value [1] is reported as 26.93 dyne/cm.
Compound `N.O=S(=O)(NS(=O)(=O)C(F)(F)C(F)(F)C(F)(F)C(F)(F)F)C(F)(F)C(F)(F)C(F)(F)C(F)(F)F` [DBI-NH4, NH4^+−N(SO2C4F9)2] has a surface tension ([3]; 200 ppm) of 48.6 dyne/cm, a surface tension ([3]; 450 ppm) of 44.1 dyne/cm and a surface tension ([3]; 960 ppm) of 40.1 dyne/cm. For the same compound, the surface tension ([3]; 1300 ppm) was 38.7 dyne/cm, the surface tension ([3]; 1700 ppm) was 35.9 dyne/cm and the surface tension ([3]; 2600 ppm) was 31.5 dyne/cm. For the same compound, the “surface tension versus concentration profile, comparison in words” value [3] was “better surfactants than NH4^+−OSO2C8F17”.
In the case of `O=S(=O)(NS(=O)(=O)C(F)(F)C(F)(F)C(F)(F)C(F)(F)F)C(F)(F)C(F)(F)C(F)(F)C(F)(F)F` [bis(perfluorobutanesulfonyl)imide, HN(SO2C4F9)2], the “surface tension versus concentration profile, comparison in words” value [3] is reported as “better surfactants than NH4^+−OSO2C8F17” and the appearance of solution ([5]; 1000 ppm) is reported as “slightly hazy to the eye”.
In the case of `O=S(=O)([O-])C(F)(F)C(F)(F)C(F)(F)C(F)(F)C(F)(F)C(F)(F)C(F)(F)C(F)(F)F.O=S(=O)([O-])C(F)(F)C(F)(F)C(F)(F)C(F)(F)C(F)(F)C(F)(F)C(F)(F)C(F)(F)F.[Ca+2]` [Ca(C8F17SO3)2], the “Surface Tension @ 2000 ppm” value [1] is reported as 26.15 dyne/cm.
With `O=S(=O)([O-])C(F)(F)C(F)(F)C(F)(F)C(F)(F)C(F)(F)C(F)(F)C(F)(F)C(F)(F)F.[K+]` [Example C8F17SO3K, Potassium perfluorooctanesulfonate] the “surface tension (surface energy)” value ([3]; 10 ppm) was 67.68 dynes/cm, the “surface tension (surface energy)” value ([3]; 100 ppm) was 54.09 dynes/cm and the “surface tension (surface energy)” value ([3]; 1000 ppm) was 33.17 dynes/cm. For the same compound, the “Surface Tension @ 2000 ppm” value [1] was 26.96 dyne/cm, the “Amount of Sulfonate, Day 1” value [4] was 419 ± 86 ppm and the “Amount of Sulfonate, Day 14” value [4] was 309 + 34 ppm. The “Amount of Sulfonate, Day 28” value [4] was 237 ± 25 ppm, the “Amount of Sulfonate, Day 1N” value [4] was 419 ppm and the “Amount of Sulfonate, Day 14N” value [4] was 309 ppm. For the same compound, the “Amount of Sulfonate, Day 28N” value [4] was 237 ppm.
For “[^−N(SO2C4F9)2]2 (+)H3NCH(CH3)CH2[OCH(CH3)CH2]a[OCH2CH2]8.5[OCH(CH3)CH2]CNH3(+) (a+c=2.5) [(DBI)2 JEFFAMINE ™ ED600]”, the “surface tension (surface energy)” value ([3]; 10 ppm) was 57.4 dynes/cm, the “surface tension (surface energy)” value ([3]; 100 ppm) was 40.7 dynes/cm and the “surface tension (surface energy)” value ([3]; 1000 ppm) was 32.7 dynes/cm. For the same compound, the “surface tension versus concentration profile, comparison in words” value [3] was “significantly lower surface tensions than C4F9SO3K”.
For `O=S(=O)([O-])C(F)(F)C(F)(F)C(F)(F)C(F)(F)C(F)(F)C(F)(F)F.[K+]` [C6F13SO3^−, potassium perfluorohexanesulfonate], the “factor lower than C8F17SO3−” value [4, 6] was 6.5, the “factor lower than C8F17SO3−” value [4, 7] was 21.5 and the “factor lower than C8F17SO3−” value [4, 8] was 1.3. For the same compound, the “Amount of Sulfonate, Day 1” value [4] was 327 ± 52 ppm, the “Amount of Sulfonate, Day 14” value [4] was 61.9 ± 11.7 ppm and the “Amount of Sulfonate, Day 28” value [4] was 36.3 ± 7.4 ppm. The “Amount of Sulfonate, Day 1N” value [4] was 98 ppm, the “Amount of Sulfonate, Day 14N” value [4] was 19 ppm and the “Amount of Sulfonate, Day 28N” value [4] was 11 ppm.
